Data taken from ChEMBL document CHEMBL2062458, “Cyclic heptapeptides, cordyheptapeptides C-E, from the marine-derived fungus Acremonium persicinum SCSIO 115 and their cytotoxic activities” (J Nat Prod, 2012).
Peptide text beside a SMILES is read from it.

Columns and labels:
Type in all cases: functional, cell-based
NCI-H460 = assay: Cytotoxicity against human NCI-H460 cells after 72 hrs by sulforhodamine B assay; details: NCI-H460, 72 h
SF-268 = assay: Cytotoxicity against human SF268 cells after 72 hrs by sulforhodamine B assay; details: SF-268, 72 h
MCF7 = assay: Cytotoxicity against human MCF7 cells after 72 hrs by sulforhodamine B assay; details: MCF7, 72 h

Structure (SMILES) | IC50 (NCI-H460) | IC50 (SF-268) | IC50 (MCF7)
CC(C)C[C@@H]1NC(=O)[C@H](C(C)C)NC(=O)[C@H](Cc2ccc(O)cc2)N(C)C(=O)[C@H](Cc2ccccc2)NC(=O)CN(C)C(=O)[C@@H]2CCCN2C(=O)[C@@H](Cc2ccccc2)N(C)C1=O [Cordyheptapeptide C] (HELM PEPTIDE1{F.[meY].V.L.[CN([C@H](Cc1ccccc1)C(=O)[*:2])[*:1]].P.[Sar]}$PEPTIDE1,PEPTIDE1,1:R1-7:R2$$$V2.0) | 11.6 µM | 3.7 µM | 3 µM
CC(C)C[C@@H]1NC(=O)[C@H](C(C)C)NC(=O)[C@H](Cc2ccc(O)cc2)N(C)C(=O)[C@H](Cc2ccccc2)NC(=O)CN(C)C(=O)[C@@H]2CCCN2C(=O)[C@@H](Cc2ccc(O)cc2)N(C)C1=O [Cordyheptapeptide D] | > 100 µM | 45.6 µM | 82.7 µM
CC[C@@H](C)[C@@H]1NC(=O)[C@H](Cc2ccc(O)cc2)N(C)C(=O)[C@H](Cc2ccccc2)NC(=O)CN(C)C(=O)[C@@H]2CCCN2C(=O)[C@@H](Cc2ccc(O)cc2)N(C)C(=O)[C@H](CC(C)C)NC1=O [Cordyheptapeptide E] | 4.5 µM | 3.2 µM | 2.7 µM
